Assay results taken from US8871741B2, “Inhibition of TNF-α induced activation of NFKB by pentosan polysulfate” (Icahn School of Medicine at Mount Sinai, priority 2010, dated 2014).

Columns and labels:
IκB = assay: TNFα stimulated IκB phosphorylation in proximal tubular cells, Western-blot; type: cell-based, mouse; details: proximal tubular cells treated with PPS (400 μg/ml, ½ hour) before TNFα 10 ng/ml
Procedure: (§1) The activation of NF-κB and mitogen activated protein kinases including p38, JNK (Jun N-terminal kinase), and ERK (extracellular signal regulated kinase) pathways play an essential role in proinflammatory actions of TNFα. Thus, it was examined whether PPS affected the phosphorylation of IκB, ERK, p38, and JNK by TNFα. Proximal tubular cells were allowed to grow to 70% confluency in […] petri-dish. Cell lysates were collected before or 15, 30, 60, and 120 minutes after TNFα treatment (10 ng/ml). Cells in some dishes were pre-incubated with PPS (400 μg/ml) for ½ hour before exposure to TNFα. The levels of phosphorylated IκB, ERK, p38, and JNK were determined by Western-blots. Briefly, equal amounts of protein samples (10-20 μg/lane) were loaded onto SDS-PAGE gels. After electrophoresis, proteins were transferred to nitrocellulose membranes and blotted with antibody against phosphorylated IκB, ERK, p38, or JNK (Cell signaling, Boston, Mass.). After the first analysis, the membranes were stripped to re-probe with antibody against total IκB, ERK, p38 or JNK, and ERK and finally with antibody against β-actin (Cell signaling, Boston, Mass.).

[1] = test system: Watanabe heritable hypercholesterolemic rabbits (WHHL); assay: Progression of established atherosclerosis in WHHL rabbits, morphologic analysis of aorta; type: in vivo, rabbit
Procedure: The degree of aortic atherosclerosis was evaluated by measuring the percent lesion area on the surface of the whole intimal (surface area of lesion/surface area of the whole intima) in the region between the aortic arch and the emergence of the renal arteries. Moreover, serial cross-sectional tissue samples (≈3 mm in length) taken from the aortic arch to the […] were post-fixed in paraformaldehyde (4% wt/vol.) and processed for histological analysis. The specimens were then embedded in paraffin, and 4-μm-thick sections were stained with hematoxylin and eosin (H&E). The ratio of intima to media (I/M ratio) was measured by computer-aided morphometric analysis in three consecutive cross-sectional sections of the aortic arch and the abdominal aorta, near the origin of the renal arteries, as described (Shindo J, et al., Circulation 1999; 99: 2150-2156). To avoid errors due to the heterogeneity of atherosclerotic lesions, the cross sections containing the thickest atherosclerotic lesions were selected individually from the aortic arch and used for the analysis of the cross-sectional areas of atherosclerotic lesions (Shindo J, et al., Circulation 1999; 99: 2150-2156). Percentage of the area occupied by macrophages and collagen were measured by computer-aided morphometric analysis on aortic cross sections stained immunohistochemically with RAM-11 antibody (DAKO Corp.) or Sirius red, respectively.

hepatic lipase = assay: Post-heparin hepatic lipase activity in WHHL rabbits; type: in vivo, rabbit; details: end of treatment period
Procedure: Blood was drawn from rabbits after a 12-hour fast into tubes containing EDTA at the beginning of the study, every two weeks during treatment with the atherogenic diet, and at the end of the study. The total cholesterol and triglyceride concentrations (Sigma) as well as unesterified cholesterol and phospholipids (Wako Chemicals, Richmond, Va.) were determined on plasma samples using enzymatic methods on a Hitachi 911 Autoanalyzer (Boehringer Mannheim). Post-heparin hepatic lipase activity was determined as described (Iverius P H, Brunzell J D. Am J Physiol 1985; 249: E107-E114).

ERK1/2 = assay: TNFα stimulated ERK1/2 phosphorylation in proximal tubular cells, Western-blot; type: cell-based, mouse
Procedure: as §1

[2] = test system: 22 month-old diabetic C57B6 mice; assay: Diabetic nephropathy in aged streptozotocin-diabetic C57B6 mice (albuminuria, renal histology, morphometry, serum chemistry); type: in vivo, mouse
Procedure: 4 and 16-17 month-old female C57B6 mice were obtained from National Institute on Aging and were injected with streptozotocin to induce diabetes. Mice were given 50 μg/g of streptozotocin in every three days, for a total of 5-8 injections. A total of 250-400 μg/g of streptozotocin was sufficient in most of mice to induce stable hyperglycemia (≧250 mg/dL). The streptozotocin dose required to establish stable diabetes was similar between […] and 4 month-old mice. There was less than 10% of mortality in both age groups of diabetic mice with this streptozotocin protocol. Dead mice were excluded from further study. Mice with stable diabetes at 5 or 18 months of age were selected for randomization. Female C57B6 mice were chosen as the onset and nature of renal lesions in aging was documented by the inventors herein These mice have irregular, lengthened estrous cycles around 10 to 14 months of age and the cycles usually cease at 18 months of age. […] 18 month-old diabetic mice were randomly divided into PPS treated (n=10, PPS 25 mg/kg/day in drinking water) and control (n=11) groups. No PPS treatment was given to 5 month-old diabetic mice. Both age groups of diabetic mice were followed for 4 months without insulin treatment. Body weight and blood glucose levels were monitored weekly. Urine albumin excretion was measured bi-weekly using an ELISA kit (Bethyl Laboratory Inc, Houston, Tex., USA), as previously described (Zheng F, et al. Am J Pathol 2003, 162:1339-1348). Urine creatinine levels were measured in the same samples and the urine albumin excretion rate was expressed as the ratio of albumin to creatinine Blood urea nitrogen (BUN) levels and serum creatinine levels were examined at sacrifice. High-performance liquid chromatography (HPLC) was applied for determining serum creatinine levels using the method described by Yuen et al. (Am J Physiol Renal Physiol 2004, 286:F1116-1119).
Mice were sacrificed 4 months after stable hyperglycemia was established. Kidneys were perfused with a saline solution and subsequently one kidney was perfusion-fixed in situ with 4% paraformaldehyde for histologic studies. The tissues were embedded in glycol methacrylate or low melting paraffin, and stained with periodic acid Schiff (PAS) and Masson's Trichrome. Tissues were also postfixed for 1 hour in 1.0% osmium tetroxide, prestained in 1.25% uranyl acetate for 1 hour, dehydrated through a series of graded alcohol solutions, and embedded in EPON epoxy resin for electron microscopy. The glomerular volume and mesangial area were determined by examining plastic embedded sections using a digitizing tablet and video camera. The relative mesangial area was expressed as mesangial/glomerular surface area. Glomerular cell number was determined by counting the nuclear number in at least 30 glomeruli of each section. The glomerular basement membrane thickness was measured by the orthogonal intercept method on electron microscopic images. To determine the number of glomerular fenestrae, the length of was fenestrated or unfenestrated glomerular capillary endothelial cytoplasm was measured. Fenestrated endothelial cell cytoplasm was generally thin whereas the thickness of the unfenestrated endothelial cell cytoplasm was twice or more increased. Tubulointerstitial lesions were scored from 0 to 4 (0, no changes; 1+, changes affecting <25% of the sample; 2+, changes affecting 25 to 50% of the sample; 3+, changes affecting 50 to 75% of the sample; 4+, changes affecting 75 to 100% of the sample) based on tubular atrophy, increase in the thickness of basement membranes and interstitial area, and clusters of inflammatory cells.

[3] = 22 month-old diabetic mice treated with PPS, n = 10, at sacrifice, mean±SD
[4] = 22 month-old diabetic mice, PPS 25 mg/kg/day in drinking water, 4 months
[5] = morphometric analysis, PPS treated versus untreated 22 month-old diabetic mice

pentosan polysulfate [PPS]
decrease in the levels of IκB phosphorylation (IκB): 40-60% | intima/media ratio (I/M) compared to WHHL rabbits fed a HC-diet for 45 days ([1]; HC-diet 45 days, then oral PPS for an additional 30 days): not significantly different | area containing macrophages, relative to the total plaque area ([1]; RAM-11 staining, aortic cross sections, 75 days HC-diet, PPS last 30 days, mean±SEM): 35.56±1.51% | percent surface area of the intima occupied by lesions, reduction compared to water-treated controls ([1]; WHHL rabbits, HC-diet 75 days, PPS 30 mg/kg BW daily in drinking water for the last 30 days): approximately one-third | intima/media ratio (I/M) compared to water-treated controls ([1]; aortic arch and abdominal aorta, 75 days HC-diet, oral PPS for the last 30 days): significantly lower | Sirius red staining (collagen) in plaques ([1]; aortic arch sections, 75 days HC-diet, PPS last 30 days, mean±SEM): 47.43±2.93% | activity of post-heparin hepatic lipase, PPS- versus water-treated (hepatic lipase): no differences | TNFα-stimulated ERK1/2 phosphorylation (ERK1/2): suppressed | BUN [2, 3]: 21.3 ± 5.6 mg/dL | Scr (serum creatinine) [2, 3]: 0.118 ± 0.02 mg/dL | reduction in tubulointerstitial lesions [2, 4]: ~80% | reduction of the increase in the albumin excretion rate [2, 4]: about 50% | reduction of glomerular endothelial fenestrations ([2]; morphometric analysis, PPS treated 22 month-old diabetic mice): largely prevented | glomerular basement membrane width [2, 5]: decreased | mesangial area [2, 5]: decreased
